Measured values reported in publication PMC4303209, “A novel phosphatidylinositol 3-kinase (PI3K) inhibitor directs a potent FOXO-dependent, p53-independent cell cycle arrest phenotype characterized by the differential induction of a subset of FOXO-regulated genes” (Breast Cancer Research : BCR, 2014).

Key:
nuclear FOXO3a = assay: Immunoblot of nuclear fractions for FOXO3a in MCF-7 or U2OS cells; format: cell-based, human; conditions: nuclear fractions of treated MCF-7 or U2OS cells
Method: (§1) Figure 1 Cellular response to ETP-45658. […] Seventy-two hours post treatment, MTT assays were conducted. (B) Dose- and time-dependent analysis of Ser473 phosphorylation of AKT phosphorylation by 100nM ETP-45658 or PI-103 treatment. MCF-7 or U2OS cells were treated with the indicated concentrations (μM) of ETP-45658 (or PI-103) for four hours, then total protein was extracted and immunoblotted. For nuclear FOXO analysis, nuclear protein fractions were collected four hours post ETP-45658 (or PI-103) treatment. Nuclear FOXO3a levels were measure by immunoblotting. Nuclear fractions were confirmed by probing for lamin A/C. (C) FACS profile of MCF-7 or U2OS following 100 nM ETP-45658 treatment (20,000 events scored, N = 5). (D) Heat map for the top 100 differentially expressed genes based on hierarchical clustering using Euclidean distance metric. Red and green indicate genes that induced or repressed respectively by ETP-45658 or PI-103. Black indicates no change (N = 4). […] Numbers indicate number of genes that are exclusive to that particular category.

[1] = design: method as in PMID 17575152; conditions: cited from earlier work
HCT-116 = assay: Proliferation assay (MTT, 72 hours); format: cell-based; conditions: Homo sapiens
Method: (§2) Cells were seeded in 96-well microtitre plates. Compounds (in DMSO) were added to each well (at a final concentration of 10 μM). The medium was removed from the cells and replaced with 0.2 ml of medium containing either compound for 72 hours and then processed for MTT assay (Promega Corp, Madison, WI, USA) N = 6.
as §1

MV4.11 = assay: Proliferation assay (MTT, 72 hours); format: cell-based; conditions: Homo sapiens
Method: as §2, §1

T47D = assay: Proliferation assay (MTT, 72 hours); format: cell-based; conditions: Homo sapiens
Method: as §2, §1

MCF-7 = assay: Proliferation assay (MTT, 72 hours); format: cell-based; conditions: Homo sapiens, MCF7
Method: as §2, §1

PC3 = assay: Proliferation assay (MTT, 72 hours); format: cell-based; conditions: Homo sapiens, PC-3
Method: as §2, §1

NCIH460 = assay: Proliferation assay (MTT, 72 hours); format: cell-based; conditions: Homo sapiens, NCI-H460
Method: as §2, §1

| SMILES | nuclear FOXO3a level (nuclear FOXO3a) | aqueous solubility [1] | GI50 (HCT-116) | GI50 (MV4.11) | GI50 (T47D) | GI50 (MCF-7) | GI50 (PC3) | GI50 (NCIH460) |
| --- | --- | --- | --- | --- | --- | --- | --- | --- |
| Cn1ncc2c(N3CCOCC3)nc(-c3cccc(O)c3)nc21 [ETP-45658] | significant accumulation |  |  |  |  |  |  |  |
| Oc1cccc(-c2nc(N3CCOCC3)c3oc4ncccc4c3n2)c1 [PI-103] |  | limited aqueous solubility | 1670 nM | 50 nM | 340 nM | 500 nM | 50 nM | 1310 nM |
